We go through 25 molecules from patent publication US9533977B2, “Oxazolidinone derivative as CETP inhibitor, its preparation method, and pharmaceutical composition comprising the same” (DONG-A ST CO., LTD., priority 2013, dated 2017).

This experiment addresses T1, CETP (Homo sapiens, UniProt P11597).
T1 construct: from tissue; host or cells: human plasma from healthy men
T1 sequence (P11597 18-493): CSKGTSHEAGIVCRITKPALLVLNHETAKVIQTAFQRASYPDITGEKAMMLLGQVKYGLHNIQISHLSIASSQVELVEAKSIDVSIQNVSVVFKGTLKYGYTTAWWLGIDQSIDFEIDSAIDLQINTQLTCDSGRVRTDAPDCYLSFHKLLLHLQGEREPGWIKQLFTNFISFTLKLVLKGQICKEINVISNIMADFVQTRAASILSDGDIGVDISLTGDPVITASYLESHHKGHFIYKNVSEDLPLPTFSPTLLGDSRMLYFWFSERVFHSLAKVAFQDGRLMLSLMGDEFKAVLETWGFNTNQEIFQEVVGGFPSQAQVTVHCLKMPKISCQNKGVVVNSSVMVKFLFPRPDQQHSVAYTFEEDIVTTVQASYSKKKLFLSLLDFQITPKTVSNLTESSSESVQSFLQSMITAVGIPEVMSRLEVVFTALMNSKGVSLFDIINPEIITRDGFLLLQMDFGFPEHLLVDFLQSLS
The experiment is described as follows: Inhibitory activity against CETP in human plasma (Roar CETP activity kit, fluorescence). In kind it is biochemical. To be noted: plasma from healthy men diluted 1:10 in assay buffer, 37° C., 3 hrs, fluorescence 465/535 nm; read-out: IC50, Inhibition of CETP Activity in Human Plasma. The method, boiled down:
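Healthy male human plasma, diluted 1:10, incubated 3 hrs at 37° C with donor/acceptor fluorescent substrates and compound (0.01–10000 nM, DMSO). Fluorescence at ex 465/em 535 nm, background-corrected against no-plasma and no-compound wells; IC50 from sigmoidal fit.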
In the case of `CCN(c1ncc(-c2cccn2C(=O)OC(C)(C)C)cc1CN1C(=O)O[C@@H](c2cc(C(F)(F)F)cc(C(F)(F)F)c2)[C@@H]1C)C1CCCCC1` [Example 76, t-butyl 2-{5-({(4S,5S)-5-[3,5-bis(trifluoromethyl)phenyl]-4-methyl-2-oxo-oxazolidin-3-yl}methyl)-6-[(cyclohexyl)(ethyl)amino]pyridin-3-yl}-1H-pyrrole-1-carboxylate], the IC50 came to 87.4 nM. Under `CCN(c1ncc(-c2sccc2C)cc1CN1C(=O)O[C@H](c2cc(C(F)(F)F)cc(C(F)(F)F)c2)[C@@H]1C)C1CCCCC1` [Example 78, (4S,5R)-5-[3,5-bis(trifluoromethyl)phenyl]-4-methyl-3-({[2-(ethyl)(cyclohexyl)amino]-5-(3-methyl-thiophen-2-yl)pyridin-3-yl}methyl)-oxazolidin-2-one] stands 17.7 nM; under `CCN(c1ncc(-c2ccc(C)s2)cc1CN1C(=O)O[C@H](c2cc(C(F)(F)F)cc(C(F)(F)F)c2)[C@@H]1C)C1CCCCC1` [Example 79, (4S,5R)-5-[3,5-bis(trifluoromethyl)phenyl]-4-methyl-3-({[2-(ethyl)(cyclohexyl)amino]-5-(2-methyl-thiophen-5-yl)pyridin-3-yl}methyl)-oxazolidin-2-one], 24.3 nM. The same measure for `CCN(c1ncc(-c2cccs2)cc1CN1C(=O)O[C@H](c2cc(C(F)(F)F)cc(C(F)(F)F)c2)[C@@H]1C)C1CCCCC1` [Example 80, (4S,5R)-5-[3,5-bis(trifluoromethyl)phenyl]-4-methyl-3-({[2-(ethyl)(cyclohexyl)amino]-5-(thiophen-2-yl)pyridin-3-yl}methyl)-oxazolidin-2-one]: 22 nM.

With `CCN(c1ncc(-c2cscn2)cc1CN1C(=O)O[C@H](c2cc(C(F)(F)F)cc(C(F)(F)F)c2)[C@@H]1C)C1CCCCC1` [Example 81, (4S,5R)-5-[3,5-bis(trifluoromethyl)phenyl]-4-methyl-3-({[2-(ethyl)(cyclohexyl)amino]-5-(thiazol-4-yl)pyridin-3-yl}methyl)-oxazolidin-2-one], the IC50 is 26.5 nM. For `CCN(c1ncc(-c2ccsc2C#N)cc1CN1C(=O)O[C@@H](c2cc(C(F)(F)F)cc(C(F)(F)F)c2)[C@@H]1C)C1CCCCC1` [Example 82, 3-{5-({(4S,5S)-5-[3,5-bis(trifluoromethyl)phenyl]-4-methyl-2-oxo-oxazolidin-3-yl}methyl)-6-[(cyclohexyl)(ethyl)amino]pyridin-3-yl}-thiophene-2-carbonitrile], the IC50 stood at 246 nM.

Consider `CCN(c1ncc(-c2c(N)noc2C)cc1CN1C(=O)O[C@H](c2cc(C(F)(F)F)cc(C(F)(F)F)c2)[C@@H]1C)C1CCCCC1` [Example 85, (4S,5R)-5-[3,5-bis(trifluoromethyl)phenyl]-4-methyl-3-({[2-(ethyl)(cyclohexyl)amino]-5-(3-amino-5-methyl-isoxazol-4-yl)pyridin-3-yl}methyl)-oxazolidin-2-one], for which the IC50 amounted to 31.9 nM. The same measure for `CCN(c1ncc(-c2cscc2C)cc1CN1C(=O)O[C@H](c2cc(C(F)(F)F)cc(C(F)(F)F)c2)[C@@H]1C)C1CCCCC1` [Example 86, (4S,5R)-5-[3,5-bis(trifluoromethyl)phenyl]-4-methyl-3-({[2-(ethyl)(cyclohexyl)amino]-5-(3-methyl-thiophen-4-yl)pyridin-3-yl}methyl)-oxazolidin-2-one]: 30.4 nM; for `CCC1CCCN1c1cnc(N(CC)C2CCCCC2)c(CN2C(=O)O[C@H](c3cc(C(F)(F)F)cc(C(F)(F)F)c3)[C@@H]2C)c1` (stereo partly drawn) [Example 90, (4S,5R)-5-[3,5-bis(trifluoromethyl)phenyl]-4-methyl-3-({[2-(ethyl)(cyclohexyl)amino]-5-(2-ethyl-pyrrolidin-1-yl)pyridin-3-yl}methyl)-oxazolidin-2-one]: 11.8 nM; for `CCN(c1ncc(N2CCC(F)(F)C2)cc1CN1C(=O)O[C@H](c2cc(C(F)(F)F)cc(C(F)(F)F)c2)[C@@H]1C)C1CCCCC1` [Example 91, (4S,5R)-5-[3,5-bis(trifluoromethyl)phenyl]-4-methyl-3-({[2-(ethyl)(cyclohexyl)amino]-5-(3,3-difluoro-pyrrolidin-1-yl)pyridin-3-yl}methyl)-oxazolidin-2-one]: 26.7 nM. `CCN(c1ncc(N2CCCC2C(F)(F)F)cc1CN1C(=O)O[C@H](c2cc(C(F)(F)F)cc(C(F)(F)F)c2)[C@@H]1C)C1CCCCC1` (stereo partly drawn) [Example 92, (4S,5R)-5-[3,5-bis(trifluoromethyl)phenyl]-4-methyl-3-({[2-(ethyl)(cyclohexyl)amino]-5-(2-(trifluoromethyl)-pyrrolidin-1-yl)pyridin-3-yl}methyl)-oxazolidin-2-one]: the IC50 was 48 nM. Under `Cc1noc(C)c1-c1cnc(N2CCCCC2)c(CN2C(=O)O[C@@H](c3cc(C(F)(F)F)cc(C(F)(F)F)c3)[C@@H]2C)n1` [Example 98, (4S,5S)-5-[3,5-bis(trifluoromethyl)phenyl]-3-{[6-(3,5-dimethylisoxazol-4-yl)-3-(piperidin-1-yl)pyrazin-2-yl)methyl}-4-methyloxazolidin-2-one] stands 2.61 nM; under `Cc1noc(C)c1-c1cnc(N2CC(C)OC(C)C2)c(CN2C(=O)O[C@@H](c3cc(C(F)(F)F)cc(C(F)(F)F)c3)[C@@H]2C)n1` (stereo partly drawn) [Example 99, (4S,5S)-5-[3,5-bis(trifluoromethyl)phenyl]-3-{[6-(3,5-dimethylisoxazol-4-yl)-3-(2,6-dimethylmorpholino)pyrazin-2-yl]methyl}-4-methyloxazolidin-2-one], 83.1 nM; under `Cc1noc(C)c1-c1cnc(N2CCCC(C(F)(F)F)C2)c(CN2C(=O)O[C@@H](c3cc(C(F)(F)F)cc(C(F)(F)F)c3)[C@@H]2C)n1` (stereo partly drawn) [Example 100, (4S,5S)-5-[3,5-bis(trifluoromethyl)phenyl]-3-{[6-(3,5-dimethylisoxazol-4-yl)-3-[3-(trifluoromethyl)piperidin-1-yl]pyrazin-2-yl]methyl}-4-methyloxazolidin-2-one], 15.6 nM. The same measure for `CCN(CC1CCCC1)c1ncc(-c2c(C)noc2C)nc1CN1C(=O)O[C@H](c2cc(C(F)(F)F)cc(C(F)(F)F)c2)[C@@H]1C` [Example 101, (4S,5R)-5-[3,5-bis(trifluoromethyl)phenyl]-3-({[3-(cyclopentylmethyl)(ethyl)amino]-4-methyl 6-(3,5-dimethylisoxazol-4-yl)pyrazin-3-yl}methyl)-oxazolidin-2-one]: 3.45 nM; for `CCN(C[C@H]1CC[C@H](CC(=O)O)CC1)c1ncc(-c2c(C)noc2C)nc1CN1C(=O)OC(c2cc(C(F)(F)F)cc(C(F)(F)F)c2)[C@@H]1C` (stereo partly shown) [Example 102]: 0.65 nM. The same measure for `CCN(C[C@H]1CC[C@H](CC(=O)O)CC1)c1ncc(-c2cccn2C)nc1CN1C(=O)OC(c2cc(C(F)(F)F)cc(C(F)(F)F)c2)[C@@H]1C` (stereo partly shown) [Example 104]: 3.8 nM; for `CCN(CC1CCC(CC(=O)O)CC1)c1ncc(-c2ccnn2C)nc1CN1C(=O)OC(c2cc(C(F)(F)F)cc(C(F)(F)F)c2)C1C` [Example 106, trans-4-({[3-({(4S,5S)-5-[3,5-bis(trifluoromethyl)phenyl]-4-methyl-2-oxazolidin-3-yl}methyl)-5-(1-methyl-1H-pyrazol-5-yl)pyrazin-2-yl]{[N-(ethyl)aminomethyl]cyclohexyl)}acetic acid]: 30.3 nM; for `CCN(CC1CCC(CC(=O)O)CC1)c1ncc(-c2cc(C)nn2C)nc1CN1C(=O)OC(c2cc(C(F)(F)F)cc(C(F)(F)F)c2)C1C` [Example 107, trans-4-({[3-({(4S,5S)-5-[3,5-bis(trifluoromethyl)phenyl]-4-methyl-2-oxazolidin-3-yl}methyl)-5-(1,3-dimethyl-1H-pyrazol-5-yl)pyrazin-2-yl]{[N-(ethyl)aminomethyl]cyclohexyl)}acetic acid]: 37 nM.

For `CCN(C[C@H]1CC[C@H](CC(=O)O)CC1)c1ncc(-c2cn(C)nc2C)nc1CN1C(=O)OC(c2cc(C(F)(F)F)cc(C(F)(F)F)c2)[C@@H]1C` (stereo partly shown) [Example 108], the IC50 worked out at 45.9 nM.

As for `CCN(C[C@H]1CC[C@H](CC(=O)O)CC1)c1ncc(-c2sccc2OC)nc1CN1C(=O)OC(c2cc(C(F)(F)F)cc(C(F)(F)F)c2)[C@@H]1C` (stereo partly shown) [Example 109], the 50% inhibitory concentration (IC50) is 3.84 nM. On to `CCN(C[C@H]1CC[C@H](CC(=O)O)CC1)c1ncc(-c2cc(C)cs2)nc1CN1C(=O)OC(c2cc(C(F)(F)F)cc(C(F)(F)F)c2)[C@@H]1C` (stereo partly shown) [Example 110], for which the IC50 stood at 56.2 nM.

Take `CCN(C[C@H]1CC[C@H](CC(=O)O)CC1)c1ncc(-c2sccc2C)nc1CN1C(=O)OC(c2cc(C(F)(F)F)cc(C(F)(F)F)c2)[C@@H]1C` (stereo partly shown) [Example 111]: the IC50 was 3.11 nM. As to `CCN(CC1CCC(CC(=O)O)CC1)c1ncc(-c2nccs2)nc1CN1C(=O)OC(c2cc(C(F)(F)F)cc(C(F)(F)F)c2)C1C` [Example 112, trans-4-({[3-({(4S,5S)-5-[3,5-bis(trifluoromethyl)phenyl]-4-methyl-2-oxazolidin-3-yl}methyl)-5-(thiazol-2-yl)pyrazin-2-yl]{[N-(ethyl)aminomethyl]cyclohexyl)}acetic acid], the IC50 was 37.4 nM. Under `CCN(C[C@H]1CC[C@H](CC(=O)O)CC1)c1ncc(-c2cscn2)nc1CN1C(=O)OC(c2cc(C(F)(F)F)cc(C(F)(F)F)c2)[C@@H]1C` (stereo partly shown) [Example 113] stands 16 nM.

By IC50 is commonly meant the concentration that gives 50% inhibition.
